Measured values from the supplement of paper PMC4858399.
Where a name gives a salt, the structure may show the parent alone.

Experiments:
[1] = test system: Caenorhabditis elegans N2; test: mean nematode size ln(EXT) after 48 h, plate-adjusted (DMSO control set to 6) (ln(EXT), control-adjusted); higher = larger nematodes / less growth inhibition; conditions: exposure time 48 h
Method in brief: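 Synchronised C. elegans N2 L1 larvae were grown for 48 h at 20°C in K-medium containing killed OP50, 1% DMSO and 0.5–200 µM chemical, at 50 per well and 4–6 wells per treatment. The Biosort recorded extinction for each worm, and a growth model removed debris. Worm size was obtained by natural-logging these values and averaging them per well. For plate adjustment, the vehicle control mean was subtracted and 6 was added.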

[2] = test system: Caenorhabditis elegans N2; test: lowest effective concentration for larval growth inhibition (size below effect threshold); higher = less potent; conditions: exposure time 48 h
Method in brief: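 L1 larvae of C. elegans N2 (50 per 96-well) were grown in K-medium with killed bacteria and 1% DMSO, with the chemical at 0.5, 1, 5, 10, 50, 100 or 200 µM, for 48 h at 20°C. Per-worm extinction from the Biosort stood for size and was log-transformed into well means. For each chemical, the lowest effective concentration is the first dose where plate-adjusted mean size falls under the threshold and stays under it at the higher doses, using a threshold of 5.665.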

SMILES | mean nematode size ln(EXT) (ln) ([1]; 0.5 µM) | mean nematode size ln(EXT) (ln) ([1]; 1 µM) | mean nematode size ln(EXT) (ln) ([1]; 5 µM) | mean nematode size ln(EXT) (ln) ([1]; 10 µM) | mean nematode size ln(EXT) (ln) ([1]; 50 µM) | mean nematode size ln(EXT) (ln) ([1]; 100 µM) | mean nematode size ln(EXT) (ln) ([1]; 200 µM) | lowest effective concentration [2]
Cc1cc(=O)[nH]c(=S)[nH]1 [Methylthiouracil] | 6.01 | 5.97 | 5.94 | 5.97 | 6 | 6.12 | 5.98 | > 200 µM
CSc1nnc(C(C)(C)C)c(=O)n1N [Metribuzin] | 5.83 | 5.88 | 5.91 | 5.85 | 5.84 | 5.87 | 5.78 | > 200 µM
CCCCOC(=O)c1ccccc1C(=O)O [Monobutyl phthalate] | 6.02 | 5.99 | 6.01 | 5.99 | 5.97 | 5.95 | 5.97 | > 200 µM
CNC(=O)/C=C(\C)OP(=O)(OC)OC [Monocrotophos] | 5.81 | 5.76 | 5.74 | 5.78 | 5.79 | 5.77 | 6.07 | > 200 µM
C=CC(=C)CCC=C(C)C [Myrcene] | 5.79 | 5.75 | 5.76 | 5.75 | 5.73 | 5.71 | 5.71 | > 200 µM
C=CC(=O)NCNC(=O)C=C [N,N'-Methylenebis(acrylamide)] | 6.06 | 6.06 | 6.06 | 6.01 | 6 | 6.05 | 5.83 | > 200 µM
Cc1ccc(N(C)C)cc1 [N,N,4-Trimethylaniline] | 5.82 | 5.87 | 5.94 | 5.79 | 5.76 | 5.72 | 5.73 | > 200 µM
CC(O)CN(CCN(CC(C)O)CC(C)O)CC(C)O (stereo not given) [N,N,N',N'-Tetrakis(2-Hydroxypropyl)ethylenediamine] | 5.67 | 5.6 | 5.71 | 5.67 | 5.01 | 5.4 | 5.66 | 50 µM
CCN(CC)CCO [N,N-Diethylethanolamine] | 5.86 | 5.89 | 5.91 | 5.81 | 5.83 | 5.76 | 5.78 | > 200 µM
CN(C)c1ccccc1 [N,N-Dimethylaniline] | 5.97 | 6.02 | 6.03 | 6.01 | 6.08 | 6.02 | 5.73 | > 200 µM
CN(C)C=O [N,N-Dimethylformamide] | 5.86 | 5.92 | 5.88 | 5.84 | 6.01 | 5.79 | 5.78 | > 200 µM
CCCCCCOC(=O)CC(CC(=O)OCCCCCC)(OC(=O)CCC)C(=O)OCCCCCC [N-Butyryl tri-N-hexyl citrate] | 5.93 | 5.96 | 5.91 | 5.98 | 6.15 | 5.75 | 5.83 | > 200 µM
CCNc1ccccc1 [N-Ethyl aniline] | 5.68 | 5.67 | 5.68 | 5.67 | 5.52 | 5.56 | 5.67 | > 200 µM
CCNc1cccc(C)c1 [N-Ethyl-3-methylaniline] | 5.68 | 5.72 | 5.59 | 5.59 | 5.63 | 5.72 | 5.63 | 200 µM
CN1CCCC1=O [N-Methyl-2-pyrrolidone] | 5.94 | 5.92 | 5.89 | 5.81 | 5.8 | 5.89 | 5.84 | > 200 µM
CNC(C)=O [N-Methylacetamide] | 6.09 | 6.1 | 6.07 | 6.02 | 6.03 | 6.07 | 5.84 | > 200 µM
CCCCN(CCCC)N=O [N-Nitrosodi-N-butylamine] | 6.12 | 6.07 | 5.93 | 5.97 | 5.99 | 6.08 | 5.95 | > 200 µM
CCCN(CCC)N=O [N-Nitrosodipropylamine] | 5.88 | 5.93 | 5.92 | 5.84 | 5.87 | 5.72 | 5.97 | > 200 µM
C=CN1CCCC1=O [N-Vinyl-2-pyrrolidone] | 6.07 | 5.85 | 5.84 | 5.87 | 5.89 | 4.87 | 5.82 | > 200 µM
CCCCCCCCC(=O)O [Nonanoic acid] | 5.86 | 5.94 | 5.94 | 5.91 | 5.89 | 5.93 | 5.83 | > 200 µM
CCCCCCCC=O [Octanal] | 6 | 5.82 | 5.94 | 5.77 | 5.88 | 5.84 | 5.77 | > 200 µM
CCCCCCCC(=O)O [Octanoic acid] | 6 | 5.81 | 5.92 | 5.8 | 5.89 | 5.84 | 5.78 | > 200 µM
CNC(=O)O/N=C(\SC)C(=O)N(C)C [Oxamyl] | 6.13 | 6.48 | 6.09 | 6.33 | 6.42 | 6.43 | 5.75 | > 200 µM
C[N+](C)(C)CC1CO1 (stereo not given) [Oxiranemethanaminium, N,N,N-trimethyl-, chloride] | 5.78 | 5.84 | 5.81 | 5.54 | 5.83 | 5.84 | 5.66 | 200 µM
COc1cnc(OC)n2nc(NS(=O)(=O)c3c(OCC(F)F)cccc3C(F)(F)F)nc12 [Penoxsulam] | 6.17 | 6.06 | 5.98 | 6.03 | 6.01 | 6.02 | 5.72 | > 200 µM
CCCCCCCCCCCCCCC [Pentadecane] | 5.88 | 5.95 | 5.94 | 6.03 | 5.95 | 5.87 | 5.74 | > 200 µM
CCCCCOC(C)=O [Pentyl acetate] | 5.91 | 5.91 | 5.94 | 6 | 5.89 | 5.89 | 5.7 | > 200 µM
O=C(O)C(F)(F)C(F)(F)C(F)(F)C(F)(F)C(F)(F)F [Perfluorohexanoic acid] | 5.47 | 5.55 | 5.6 | 5.67 | 5.69 | 5.73 | 5.86 | > 200 µM

SMILES | mean nematode size ln(EXT) (ln) ([1]; 0.5 µM) | mean nematode size ln(EXT) (ln) ([1]; 1 µM) | mean nematode size ln(EXT) (ln) ([1]; 5 µM) | mean nematode size ln(EXT) (ln) ([1]; 10 µM) | mean nematode size ln(EXT) (ln) ([1]; 50 µM) | mean nematode size ln(EXT) (ln) ([1]; 100 µM) | mean nematode size ln(EXT) (ln) ([1]; 200 µM) | lowest effective concentration [2]
Oc1ccccc1 [Phenol] | 6.09 | 5.98 | 6.01 | 5.98 | 5.94 | 5.92 | 6.02 | > 200 µM
c1ccc2c(c1)Nc1ccccc1S2 [Phenothiazine] | 6.07 | 6.03 | 5.92 | 5.8 | 5.55 | 5.59 | 5.99 | > 200 µM
OCCOc1ccccc1 [Phenoxyethanol] | 5.77 | 5.98 | 6.04 | 6.07 | 6.15 | 5.99 | 5.97 | > 200 µM
CCCCC(CC)COC(=O)c1ccccc1C(=O)O (stereo not given) [Phthalic acid, mono-2-ethylhexyl ester] | 5.83 | 5.76 | 5.77 | 6.08 | 6.11 | 6.44 | 5.88 | > 200 µM
Nc1c(Cl)c(Cl)nc(C(=O)O)c1Cl [Picloram] | 6.16 | 6.06 | 6.09 | 6.14 | 6.12 | 6.14 | 5.97 | > 200 µM
CCc1ccc(CCOc2ccc(CC3SC(=O)NC3=O)cc2)nc1 (stereo not given) [Pioglitazone HCl] | 5.98 | 5.94 | 5.95 | 5.96 | 5.91 | 5.87 | 5.76 | > 200 µM
C1CNCCN1 [Piperazine] | 5.84 | 5.81 | 5.85 | 5.84 | 5.89 | 5.84 | 5.74 | > 200 µM
Cc1nc(N(C)C)nc(OC(=O)N(C)C)c1C [Pirimicarb] | 5.83 | 5.88 | 6.03 | 5.99 | 6.32 | 5.99 | 5.96 | > 200 µM
Cc1cccc(Nc2cc(Cl)nc(SCC(=O)O)n2)c1C [Pirinixic acid] | 6.05 | 5.95 | 5.99 | 5.97 | 5.94 | 5.77 | 5.93 | > 200 µM
O=S(=O)(O)C(F)(F)C(F)(F)C(F)(F)C(F)(F)F [Potassium nonafluoro-1-butanesulfonate] | 5.49 | 5.58 | 5.55 | 5.7 | 5.7 | 5.65 | 5.81 | > 200 µM
CC[C@H](C)C(=O)O[C@H]1C[C@H](O)C=C2C=C[C@H](C)[C@H](CC[C@@H](O)C[C@@H](O)CC(=O)O)[C@H]21 [Pravastatin sodium] | 5.99 | 5.97 | 5.93 | 5.92 | 5.91 | 5.79 | 5.81 | > 200 µM
CCCOC(=O)NCCCN(C)C [Propamocarb hydrochloride] | 5.84 | 5.93 | 5.9 | 5.93 | 6.01 | 5.91 | 5.89 | > 200 µM
CNC(=O)Oc1ccccc1OC(C)C [Propoxur] | 6.04 | 5.9 | 6.09 | 6.03 | 5.83 | 6.46 | 5.8 | > 200 µM
CCCc1ccccc1 [Propylbenzene] | 5.75 | 5.64 | 5.71 | 5.69 | 5.38 | 5.53 | 5.61 | 50 µM
CC(O)CO (stereo not given) [Propylene glycol] | 6.09 | 5.99 | 6.05 | 6.02 | 5.91 | 5.9 | 5.71 | > 200 µM
CCCOC(=O)c1ccc(O)cc1 [Propylparaben] | 5.95 | 5.95 | 5.9 | 5.92 | 5.84 | 5.87 | 5.79 | > 200 µM
CC1=NNC(=O)N(/N=C/c2cccnc2)C1 [Pymetrozine] | 5.74 | 5.77 | 5.8 | 5.78 | 5.77 | 5.89 | 5.76 | > 200 µM
CCOC(=O)COc1cc(-c2nn(C)c(OC(F)F)c2Cl)c(F)cc1Cl [Pyraflufen-ethyl] | 5.75 | 5.74 | 5.74 | 5.85 | 5.98 | 6.02 | 5.88 | > 200 µM
COc1cc(OC)nc(Sc2cccc(Cl)c2C(=O)O)n1 [Pyrithiobac-sodium] | 5.98 | 6 | 6.11 | 6.18 | 6.06 | 6.1 | 5.69 | > 200 µM
O=C(O)c1c(Cl)ccc2cc(Cl)cnc12 [Quinclorac] | 5.97 | 6.03 | 6.03 | 5.99 | 5.97 | 6.07 | 5.76 | > 200 µM
c1ccc2ncccc2c1 [Quinoline] | 5.87 | 5.87 | 5.78 | 5.79 | 5.78 | 5.81 | 5.73 | > 200 µM
Oc1cccc(O)c1 [Resorcinol] | 5.81 | 5.86 | 5.94 | 5.84 | 5.88 | 5.84 | 5.78 | > 200 µM
CC1=C(/C=C/C(C)=C/C=C/C(C)=C/CO)C(C)(C)CCC1 [Retinol] | 5.92 | 5.89 | 5.91 | 5.75 | 5.9 | 5.84 | 5.68 | > 200 µM
O=C1NS(=O)(=O)c2ccccc21.[Na] [Saccharin sodium salt hydrate] | 5.88 | 5.93 | 5.96 | 5.9 | 5.89 | 5.9 | 5.79 | > 200 µM
CCNc1nc(Cl)nc(NCC)n1 [Simazine] | 6.2 | 6.08 | 6.12 | 6.13 | 6.17 | 6.19 | 5.77 | > 200 µM
O=C([O-])c1ccccc1.[Na+] [Sodium benzoate] | 5.83 | 5.83 | 5.95 | 5.83 | 5.86 | 5.76 | 5.68 | > 200 µM
CC(=O)C1C(=O)C=C(C)OC1=O (stereo not given) [Sodium dehydroacetate] | 5.99 | 5.95 | 5.97 | 5.86 | 5.94 | 5.93 | 5.72 | > 200 µM
